Publication PMC7272617 (Scientific Reports, 2020)
Converted amounts (≈) assume the structure as drawn. Where a SMILES comes first, the peptide text is derived from it.

Legend:
[1] = system: all Gram-negative strains; experiment: Mean MIC and therapeutic index, Gram-negative strains; type: cell-based; settings: 7 Gram-negative strains of Table 3
Method: (§1) The antimicrobial activity of the peptides was determined against both Gram-positive and -negative bacteria including 14 MDR P. aeruginosa clinical isolates from Bhumibol Adulyadej Hospital (Tables 1 and 3). The minimal inhibitory concentration (MIC) of each peptide was measured according to a modification of the National Committee for Clinical Laboratory Standards (NCCLS) broth microdilution method as previously described. Briefly, bacterial cells in mid-log phase were cultured in Müeller-Hinton broth (MHB) and then diluted to 10^7 CFU/ml. […] Plates were incubated at 37 °C for 24 h, and MICs were defined as the lowest concentration of peptide that prevented visible turbidity. Cultures without peptides and uninoculated MHB were employed as positive and negative controls, respectively. Colony count assays were performed to determine the minimal bactericidal concentrations (MBCs) for determination of time-killing activity. As previously described, a 50 μl aliquot from each non-turbid well identified in the MIC determination experiment was spread on agar plates.
(§2) To further evaluate the global activity of these peptides, the geometric mean (GM) MIC and the therapeutic index (TI) of each were calculated (Table 3). The TI, a widely used parameter to evaluate cell selectivity and specificity of antimicrobial agents, was calculated as the ratio of MHC (the concentration that causes 10% hemolysis) to the geometric mean of MICs[22]. Higher TIs indicated greater cell selectivity and specificity.

[2] = system: all Gram-positive strains; experiment: Mean MIC and therapeutic index, Gram-positive strains; type: cell-based; settings: 5 Gram-positive strains of Table 3
Method: as §1, §2

[3] = system: Gram-negative and -positive bacterial strains; experiment: MIC against the panel of Gram-negative and -positive bacterial strains; type: cell-based; settings: 12 strains of Table 3; result in words
[4] = system: Pseudomonas aeruginosa ATCC 27853; settings: ATCC 27853, 24 h
[5] = system: Escherichia coli ATCC 25922; settings: ATCC 25922, 24 h
[6] = system: Escherichia coli O157:H7 MT strain; settings: E. coli O157:H7 MT strain; MHB, 37 °C, 24 h
[7] = system: Shigella sonnei ATCC 11060; settings: MHB, 37 °C, 24 h
[8] = system: Salmonella Typhimurium ATCC 13311; settings: ATCC 13311, 24 h
[9] = system: Vibrio cholera O1 Inaba DMST 16261; settings: MHB, 37 °C, 24 h
[10] = system: Acinetobacter baumannii MT strain; settings: MT strain, 24 h
[11] = system: Staphylococcus aureus ATCC 25923; settings: ATCC 25923, 24 h
[12] = system: Staphylococcus epidermidis ATCC 12228; settings: ATCC 12228, 24 h
[13] = system: Bacillus cereus ATCC 11778; settings: ATCC 11778, 24 h
[14] = system: Enterococcus faecalis ATCC 29212; settings: ATCC 29212, 24 h
[15] = system: Listeria monocytogenes 10403 s; settings: 10403 s, 24 h

SMILES	GM (Gr.− strains): geometric mean of MIC values from all Gram-negative strains [1] [µg/mL]	GM (Gr.+ strains): geometric mean of MIC values from all Gram-positive strains [2] [µg/mL]	antibacterial activity against tested microorganisms [3]	MIC [4] [µg/mL]	MIC [5] [µg/mL]	MIC [6] [µg/mL]	MIC [7] [µg/mL]	MIC [8] [µg/mL]	MIC [9] [µg/mL]	MIC [10] [µg/mL]	MIC [11] [µg/mL]	MIC [12] [µg/mL]	MIC [13] [µg/mL]	MIC [14] [µg/mL]	MIC [15] [µg/mL]
CC[C@H](C)[C@H](NC(=O)[C@H](CC(=O)O)NC(=O)[C@H](Cc1ccccc1)NC(=O)[C@H](CC(C)C)NC(=O)CN)C(=O)N[C@H](C(=O)N[C@@H](CCCCN)C(=O)N[C@@H](CCCCN)C(=O)N[C@H](C(=O)N[C@@H](C)C(=O)NCC(N)=O)C(C)C)C(C)C [A0] (H-GLFDIVKKVAG-NH2; N-terminus assumed)	>250	>250	no antibacterial activity	>250	>250	>250	>250	>250	>250	>250	>250	>250	>250	>250	>250
CC(C)C[C@H](NC(=O)[C@@H](N)CCCNC(=N)N)C(=O)N[C@@H](Cc1ccccc1)C(=O)N[C@@H](CCCNC(=N)N)C(=O)N[C@@H](CCCNC(=N)N)C(=O)N[C@H](C(=O)N[C@@H](CCCCN)C(=O)N[C@@H](CCCCN)C(=O)N[C@H](C(=O)N[C@@H](C)C(=O)NCC(N)=O)C(C)C)C(C)C [A3] (H-RLFRRVKKVAG-NH2; N-terminus assumed)	>250	>250	no antibacterial activity	>250	>250	>250	>250	>250	>250	>250	>250	>250	>250	>250	250 (≈ 188 µM)
CC[C@H](C)[C@H](NC(=O)[C@H](CCCNC(=N)N)NC(=O)[C@H](CCCCN)NC(=O)[C@H](CCCCN)NC(=O)[C@@H](NC(=O)[C@H](CCCCN)NC(=O)[C@H](CCC(=O)O)NC(=O)[C@H](CCCCN)NC(=O)[C@@H](N)CCCNC(=N)N)[C@@H](C)CC)C(=O)NCC(=O)N[C@@H](CCCCN)C(=O)N[C@H](C(=O)N[C@@H](CC(=O)O)C(=O)N[C@@H](CCCNC(=N)N)C(=O)N[C@@H](CC(C)C)C(N)=O)[C@@H](C)CC [P0] (H-RKEKIKKRIGKIDRL-NH2; N-terminus assumed)	>250	>250	no antibacterial activity	>250	>250	>250	>250	>250	>250	>250	>250	>250	>250	>250	>250
CC[C@H](C)[C@H](NC(=O)[C@H](CCCNC(=N)N)NC(=O)[C@H](CCCCN)NC(=O)[C@H](C)NC(=O)[C@@H](NC(=O)[C@@H](N)CCCCN)[C@@H](C)CC)C(=O)N[C@@H](Cc1c[nH]c2ccccc12)C(=O)N[C@@H](CCCCN)C(=O)N[C@H](C(=O)N[C@@H](CC(C)C)C(=O)N[C@@H](CCCNC(=N)N)C(=O)N[C@@H](CCCNC(=N)N)C(N)=O)[C@@H](C)CC [P7] (H-KIAKRIWKILRR-NH2; N-terminus assumed)	28.46	121.09	potent antibacterial activity	7.81 (≈ 4.94 µM)	15.63 (≈ 9.89 µM)	125 (≈ 79.1 µM)	–	7.81 (≈ 4.94 µM)	31.25 (≈ 19.8 µM)	7.81 (≈ 4.94 µM)	62.5 (≈ 39.6 µM)	3.91 (≈ 2.47 µM)	–	>250	7.81 (≈ 4.94 µM)
CC[C@H](C)[C@H](NC(=O)[C@H](CCCNC(=N)N)NC(=O)[C@H](CCCCN)NC(=O)[C@H](C)NC(=O)[C@@H](NC(=O)[C@@H](N)CCCCN)[C@@H](C)CC)C(=O)N[C@@H](Cc1c[nH]c2ccccc12)C(=O)N[C@@H](CCCCN)C(=O)N[C@H](C(=O)N[C@@H](CC(C)C)C(=O)N[C@@H](CCCNC(=N)N)C(=O)N[C@@H](CCCNC(=N)N)C(=O)N[C@@H](CCCNC(=N)N)C(=O)N[C@@H](CC(C)C)C(N)=O)[C@@H](C)CC [PA-14] (H-KIAKRIWKILRRRL-NH2; N-terminus assumed)	14.23	30.86	–	3.91 (≈ 2.11 µM)	15.63 (≈ 8.45 µM)	62.5 (≈ 33.8 µM)	–	1.95 (≈ 1.05 µM)	7.81 (≈ 4.22 µM)	3.91 (≈ 2.11 µM)	15.63 (≈ 8.45 µM)	3.91 (≈ 2.11 µM)	–	125 (≈ 67.6 µM)	1.95 (≈ 1.05 µM)
CC[C@H](C)[C@H](NC(=O)[C@H](CCCNC(=N)N)NC(=O)[C@H](CCCCN)NC(=O)[C@H](C)NC(=O)[C@@H](NC(=O)[C@@H](N)CCCCN)[C@@H](C)CC)C(=O)N[C@@H](Cc1c[nH]c2ccccc12)C(=O)N[C@@H](CCCCN)C(=O)N[C@H](C(=O)N[C@@H](CC(C)C)C(=O)N[C@@H](CCCNC(=N)N)C(=O)N[C@@H](CCCNC(=N)N)C(=O)N[C@@H](CCCNC(=N)N)C(=O)N[C@@H](CC(C)C)C(=O)N[C@@H](Cc1ccccc1)C(=O)N[C@@H](CCCNC(=N)N)C(N)=O)[C@@H](C)CC [PA-16] (H-KIAKRIWKILRRRLFR-NH2; N-terminus assumed)	13.67	7.03	–	7.81 (≈ 3.63 µM)	7.81 (≈ 3.63 µM)	62.5 (≈ 29 µM)	–	1.95 (≈ 0.906 µM)	3.91 (≈ 1.82 µM)	7.81 (≈ 3.63 µM)	7.81 (≈ 3.63 µM)	–	–	15.63 (≈ 7.26 µM)	–
CC[C@H](C)[C@H](NC(=O)[C@H](CCCNC(=N)N)NC(=O)[C@H](CCCCN)NC(=O)[C@H](C)NC(=O)[C@@H](NC(=O)[C@@H](N)CCCCN)[C@@H](C)CC)C(=O)N[C@@H](Cc1c[nH]c2ccccc12)C(=O)N[C@@H](CCCCN)C(=O)N[C@H](C(=O)N[C@@H](CC(C)C)C(=O)N[C@@H](CCCNC(=N)N)C(=O)N[C@@H](CCCNC(=N)N)C(=O)N[C@@H](CCCNC(=N)N)C(=O)N[C@@H](CC(C)C)C(=O)N[C@@H](Cc1ccccc1)C(=O)N[C@@H](CCCNC(=N)N)C(=O)N[C@@H](CCCNC(=N)N)C(=O)N[C@H](C(N)=O)C(C)C)[C@@H](C)CC [PA-18] (H-KIAKRIWKILRRRLFRRV-NH2; N-terminus assumed)	45.76	12.11	–	–	31.25 (≈ 13 µM)	250 (≈ 104 µM)	–	3.91 (≈ 1.62 µM)	7.81 (≈ 3.24 µM)	15.63 (≈ 6.49 µM)	15.63 (≈ 6.49 µM)	3.91 (≈ 1.62 µM)	–	31.25 (≈ 13 µM)	1.95 (≈ 0.81 µM)
